From patent US4855445A, “Substituted-8-alkenyl-1,3,4,9-tetrahydropyrano[3,4-b]indole-1-acetic acids” (American Home Products Corporation, priority 1987, dated 1989) come the findings set out here.

One experiment deals with mice. In words: Drug Effects on Phenylbenzoquinone-induced Writhing in Mice. Format: in vivo, Male Swiss albino mice. The note with it: p.o., PBQ i.p. 60 minutes after dosing, writhes in 15 min. The procedure:
A further test used to determine the utility of the compounds of the present invention is designated: Drug Effects on Phenylbenzoquinone-induced Writhing in Mice
The objective of this test is to determine the ability of test drugs to inhibit the nociceptive (pain) response of mice injected with a chemical irritant. This test is a primary screen for both peripheral and centrally acting analgesic drugs.
Male Swiss albino mice (15-25 g). The animals are fasted for 18 hours prior to use but have free access to water.
Drug Preparation and Administration:
Drugs are dissolved or suspended according to their solubility in 0.5% Tween 80 in distilled water. They are administered by gastric gavage in a volume of 5 mL/kg. […]
A modification of the method of Siegmund et al, Proc. Soc. Exp. Biol. Med., 95, 729-731 (1957) is used. Groups of 5 mice are dosed with the test compound or vehicle control. […] The number of writhing or abdominal squirming movements made by each mouse during the following 15 min. period is counted. The experiment is repeated with another group of 5 mice and the mean numbr of writhes per mouse for a group of 10 mice is calculated.
Drug treated and vehicle-treated control groups are compared and the percentage protection conferred by the drug is calculated: [formula] where c=mean number of writhes in the control group where t=mean number of writhes in the test drug group

For a further experiment, the system named is rats. Briefly: Preventative Adjuvant Edema. Format: in vivo, Male Sprague Dawley rats. To be noted: p.o., dosed days 0, 1 and 2, edema volume day 3. The protocol:
This test is a primary screen for anti-inflammatory drugs.
Male Sprague Dawley rats (180-200 g) are used. The animals have free access to water but food is withdrawn 18 hours before testing.
Drug Preparations and Adminstration:
Freund's complete adjuvant is prepared by suspending 5 mg of killed and dried Mycobacterium butyricum (Difco) in 1 mL mineral oil. The test compounds are dissolved, or suspended in 0.5% Tween 80 in distilled water according to their solubility. […]
The method is essentially that described by Wax et al, J. Pharmacol. Exp. Ther., 192, 166-171 (1975). Groups of rats are injected intradermally in the left hind paw with 0.1 mL of Freund's complete adjuvant. The test compound or vehicle is administered immediately before the adjuvant, 24 hours and 48 hours after the adjuvant (days 0, 1 and 2). The injected hind paw volume is measured before the injection of adjuvant and 24 hrs. after the last drug administration (day 3) by means of a plethysmometer (Buxco Electronics Inc.). The difference between the hind paw volume on day 0 and day 3 represents the edema volume. […]
The mean edema volume (expressed as mL±SEM) is calculated for each group and the percentage protection conferred by the drug is calculated: [formula] where c is the mean edema volume for the vehicle-treated (0.5% Tween 80 in distilled water) controls and t is the mean edema volume for the drug treated group.

Counter-ions that a name gives are not always drawn.

Take `C/C=C\c1c(F)ccc2c3c([nH]c12)C(CC)(CC(=O)O)OCC3` (stereo not shown) [Example 1, (Z)-1-Ethyl-7-fluoro-1,3,4,9-tetrahydro-8-(1-propenyl)pyrano[3,4-b]indole-1-acetic Acid, 1,2-Ethanediamine Salt]: in the experiment with mice (10 mg/kg), the “Phenylquinone Writhing in Mice, percent inhibition” value came out at 32%. The “Preventative Adjuvant Edema, percent inhibition” value with rats (10 mg/kg) amounted to 69%.
Regarding `C/C=C\c1cccc2c3c([nH]c12)C(CC)(CC(=O)O)OCC3` (stereo not shown) [Example 2, (Z)-1-Ethyl-8-(1-propenyl)-1,3,4,9-tetrahydropyrano[3,4-b]indole-1-acetic Acid], the “Phenylquinone Writhing in Mice, percent inhibition” value in the experiment with mice (200 mg/kg) stood at 11%. Also, the “Preventative Adjuvant Edema, percent inhibition” value in the experiment with rats (25 mg/kg) turned out to be 73%.
